≈ marks a conversion by molar mass, not a printed value.
How the values were obtained:
[1] = system: P. aeruginosa PAM1723, overexpressing the MexABOprM efflux pump; assay type: cell-based, Pseudomonas aeruginosa; conditions: lowest inhibitor concentration giving antibacterial activity with levofloxacin at 1/8 of its MIC
Source text: (§1) EPI activity is defined as concentration of an EPI compound that is necessary to achieve ½ of a maximum theoretical effect in increase of antibiotic susceptibility due to efflux inhibition. The maximum theoretical effect, Emax, is defined as a ratio of antibacterial activity of antibiotics (minimal inhibitory concentration, MIC) of pump overexpressing vs. pump lacking strains. […] The strain PAM1723, overexpressing the MexABOprM efflux pump was used as a test strain. […] Azithromycin was used as test antibiotic to assess the EPI activity in Klebsiella pneumoniae. The strain KPM1004 overexpressing the AcrABTolC efflux pump was used as a test strain. […] Thus, EPI activity, that is assessed in K. pneumoniae, is a concentration of an EPI compound that is necessary to increase susceptibility to azithromicin of KPM1004 sixteen fold.
(§2) The EPI activity of the test compounds was assessed by the checkerboard assay (Antimicrobial Combinations, Antibiotics in Laboratory Medicine, Ed. Victor Lorian, M.D., Fourth edition, 1996, pp 333338, which is incorporated herein by reference in its entirety) using a broth microdilution method performed as recommended by the NCCLS (National Committee for Clinical Laboratory Standards (NCCLS), 1997, Methods for Dilution of Antimicrobial Susceptibility Tests for Bacteria That Grow Aerobically, Fourth Edition; Approved Standard. NCCLS Document M7A4, Vol 17 No. 2, which is incorporated herein by reference in its entirety). […] All EPI compounds were readily soluble in water and stock solutions were prepared at a final concentration of 10 mg/ml. Stock solutions were further diluted, according to the needs of the particular assay, in Mueller Hinton Broth (MHB). Stock solution was stored at −80° C. The checkerboard assay was performed in microtiter plates. […] EPIs were diluted in the axis, each row containing a single concentration of an EPI. […] The assay was performed in MHB with a final bacterial (PAM1723 or […]) inoculum of 5 times 10^5 CFU/ml (from an early log phase culture). Microtiter plates were incubated during 20 h at 35° C. and were read using a microtiter plate reader (Molecular Devices) at 650 nm as well as visual observation using a microtiter plate reading mirror.
(§3) Azithromycin potentiation activities of selected inhibitors for K. pneumoniae are reported as MPC16 values.

[2] = system: Klebsiella pneumoniae KPM1004 overexpressing the AcrABTolC efflux pump; assay: microbe, parasite or virus in culture; assay type: cell-based; conditions: for MPC16 (μg/mL) Azithromycin, KPM1004): lowest inhibitor concentration giving antibacterial activity with azithromycin at 1/16 of its MIC, K. pneumoniae KPM1004
Source text: as §1, §2, §3

[3] = system: Klebsiella pneumoniae KPM1007 which lacks efflux; assay: microbe, parasite or virus in culture; assay type: cell-based; conditions: read-out: Azithromycin MIC
[4] = Rat serum pharmacokinetics after 1.5-hour IV infusion; assay type: in vivo; conditions: […] IV infusion in 0.9% saline, total dose 2, 5, 10 or 20 mg/kg, two-compartment model
Method: In the experiment depicted in Table 7, above, rat serum pharmacokinetics of selected inhibitor compounds was evaluated after 1.5-hour IV infusion of 1.5 ml solution of corresponding efflux pump inhibitor in 0.9% saline. Depending on the concentration used the total infused dose was 2, 5, 10 or 20 mg/kg. A two-compartment model was used to fit the data and calculate PK parameters.

Row | Compound | MPC8 (μg/mL) (Levofloxacin, PAM1723) [1] | MPC16 (μg/mL) Azithromycin, KPM1004) [2] | further results
1 | NCCN(CCN)C(=O)CC[C@H](N)C(=O)N/C(=C/c1ccc(C(F)(F)F)cc1)C(=O)Nc1cnc2ccccc2c1 [Compound 4, 3-[(1S)-3-[bis(2-azaniumylethyl)carbamoyl]-1-{[(1E)-1-carbamoyl-2-[4-(trifluoromethyl)phenyl]eth-1-en-1-yl]carbamoyl}propan-1-aminium]quinolin-1-ium tetrachloride] | 1.25 µg/mL | 1.25 µg/mL | –
2 | Cl.Cl.Cl.Cl.Cl.NCCNCCN(CCN)C(=O)C[C@H](N)C(=O)N[C@@H](CCc1ccccc1)C(=O)Nc1cnc2ccccc2c1 [Compound 188, 3-[(2S)-2-[(1S)-2-[(2-azaniumylethyl)({2-[(2-azaniumylethyl)azaniumyl]ethyl})carbamoyl]-1-formamidoethan-1-aminium]-4-phenylbutanamido]quinolin-1-ium pentachloride] | 0.6 µg/mL | 1.25 µg/mL | –
3 | Cl.Cl.Cl.Cl.NCCN(CCN)C(=O)C[C@H](Nc1ccc2ncccc2c1)C(=O)N[C@@H](CC1CCCCC1)C(N)=O [Compound 13, 6-[(1S)-2-[bis(2-azaniumylethyl)carbamoyl]-1-{[(1S)-1-carbamoyl-2-cyclohexylethyl]carbamoyl}ethan-1-aminium]quinolin-1-ium tetrachloride] | 1.25 µg/mL | – | –
4 | 3-[(1S)-3-[bis(2-azaniumylethyl)carbamoyl]-1-{[(1S)-1-carbamoyl-2-[4-(trifluoromethyl)phenyl]ethyl](methyl)carbamoyl}propan-1-aminium]quinolin-1-ium tetrachloride [Compound 5] | 0.6 µg/mL | – | –
5 | Cl.Cl.Cl.Cl.NCCN(CCN)C(=S)C(C[C@H](N)C(=O)N[C@H](Cc1ccc(C(F)(F)F)cc1)C(N)=O)c1cnc2ccccc2c1 (stereo partly drawn) [Compound 12, 3-[(1S)-3-[bis(2-azaniumylethyl)carbamothioyl]-1-{[(1R)-1-carbamoyl-2-[4-(trifluoromethyl)phenyl]ethyl]carbamoyl}propan-1-aminium]quinolin-1-ium tetrachloride] | 1.25 µg/mL | 1.25 µg/mL | –
6 | CC[C@H]1OC(=O)[C@H](C)[C@@H](O[C@H]2C[C@@](C)(OC)[C@@H](O)[C@H](C)O2)[C@H](C)[C@@H](O[C@@H]2O[C@H](C)C[C@H](N(C)C)[C@H]2O)[C@](C)(O)C[C@@H](C)CN(C)[C@H](C)[C@@H](O)[C@]1(C)O [Azithromycin, reference compound] | – | – | MIC ([2]; Klebsiella pneumoniae, read-out: Azithromycin MIC): 32 µg/mL; Emax (ratio of MIC of pump overexpressing vs. pump lacking strains) ([2]; azithromycin, KPM1004 vs KPM1007): 256; MIC [3]: 0.125 µg/mL (≈ 0.167 µM)
7 | 3-[(1S)-3-[bis(2-azaniumylethyl)carbamoyl]-1-{[(1S,2R)-1-carbamoyl-2-hydroxy-2-[4-(trifluoromethyl)phenyl]ethyl]carbamoyl}propan-1-aminium]quinolin-1-ium tetrachloride [Compound 3] | 1.25 µg/mL | 1.25 µg/mL | pharmacokinetic profile [4]: particularly attractive pharmacokinetic profiles
8 | 3-[(1S)-3-[bis(2-azaniumylethyl)carbamoyl]-1-{[(1R)-1-carbamoyl-2-[4-(trifluoromethyl)phenyl]ethyl]carbamoyl}propan-1-aminium]quinolin-1-ium tetrachloride [Compound 1] | 0.3 µg/mL | 0.6 µg/mL | –
9 | 3-[(1S)-3-[bis(2-azaniumylethyl)carbamoyl]-1-{[(1S)-1-carbamoyl-2-[4-(trifluoromethyl)phenyl]ethyl]carbamoyl}propan-1-aminium]quinolin-1-ium tetrachloride [Compound 28] | 1.25 µg/mL | 1.25 µg/mL | –

From patent US8178490B2, “Polybasic bacterial efflux pump inhibitors and therapeutic uses thereof” (priority 2007, dated 2012)
